Data: patent US20060211700A1, “(R)-8,9-dichloro-2,3,4,4a-tetrahydro-1H,6H-pyrazino[1,2-a]quinoxalin-5-one for controlling IOP and treating glaucoma” (Alcon, Inc., priority 2005, published 2006)

Key:
[1] = target: T1, human serotonin receptor clone 5-HT2C (Homo sapiens, UniProt P28335); experiment: In vitro functional response (aequorin luminescence) in CHO-K1 cells expressing 5-HT2C; format: cell-based; conditions: for Emax: CHO-K1, relative to the response of 5-HT; for EC50: CHO-K1 cells, aequorin, Gα16
T1 construct: expressed in transfected cells; host or cells: CHO-K1
T1 sequence (P28335 33-458): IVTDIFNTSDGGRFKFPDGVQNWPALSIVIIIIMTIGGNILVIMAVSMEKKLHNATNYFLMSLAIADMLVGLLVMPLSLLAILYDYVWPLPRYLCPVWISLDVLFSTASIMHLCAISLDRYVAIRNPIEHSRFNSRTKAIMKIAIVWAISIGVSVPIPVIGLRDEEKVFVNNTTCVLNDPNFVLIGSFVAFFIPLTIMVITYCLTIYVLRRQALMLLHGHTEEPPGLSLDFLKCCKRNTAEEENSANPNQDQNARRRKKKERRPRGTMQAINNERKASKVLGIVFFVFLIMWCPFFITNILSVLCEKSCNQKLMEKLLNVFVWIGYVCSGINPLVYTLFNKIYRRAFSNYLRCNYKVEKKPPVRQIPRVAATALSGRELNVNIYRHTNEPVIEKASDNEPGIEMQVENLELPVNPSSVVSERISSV
Procedure: (§1) In Vitro Functional Response at 5-HT2 Receptors
(§2) Functional response at the 5-HT2 receptor subtypes was determined using CHO-K1 cells stably expressing mitochondrially-targeted bioluminescent aequorin, Gα16, and one of either human serotonin receptor clone 5-HT2A, 5-HT2B, or 5-HT2C. Prior to testing, cells were loaded in suspension with coelenterazine for 4-16 hours and directly injected onto different concentrations of the test compound. Light emitted from the cells was measured 20-30 seconds following receptor activation. A luminometer was used to record luminescence in response to the test compound. The mean response signal at each of 8-11 different concentrations was integrated to provide an estimation of receptor activation, expressed as the EC50 value. The efficacy of the response (Emax) at the 5-HT2A and 5-HT2B receptors is expressed relative to the response of α-methyl-5-HT under the same assay conditions while the efficacy at 5-HT2C is expressed relative to the response of 5-HT.

[2] = target: T2, human serotonin receptor clone 5-HT2A (Homo sapiens, UniProt P28223); experiment: In vitro functional response (aequorin luminescence) in CHO-K1 cells expressing 5-HT2A; format: cell-based; conditions: for Emax: CHO-K1, relative to the response of α-methyl-5-HT; for EC50: CHO-K1 cells, aequorin, Gα16
T2 construct: expressed in transfected cells; host or cells: CHO-K1
Procedure: as §1, §2

[3] = target: T3, human serotonin receptor clone 5-HT2B (Homo sapiens, UniProt P41595); experiment: In vitro functional response (aequorin luminescence) in CHO-K1 cells expressing 5-HT2B; format: cell-based; conditions: for Emax: CHO-K1, relative to the response of α-methyl-5-HT; for EC50: CHO-K1 cells, aequorin, Gα16
T3 construct: expressed in transfected cells; host or cells: CHO-K1
Procedure: as §1, §2

[4] = system: lasered (hypertensive) eyes of conscious cynomolgus monkeys; experiment: Acute IOP response in lasered (hypertensive) eyes of conscious cynomolgus monkeys; format: in vivo, cynomolgus monkey; conditions: for IOP % change / IOP Change mmHg: lasered eye; for IOP lowering efficacy (in words): dosed at 300 μg
Procedure: Acute IOP Response in Lasered (Hypertensive) Eyes of Conscious Cynomolgus Monkeys
Intraocular pressure (IOP) can be determined with an Alcon Pneumatonometer after light corneal anesthesia with 0.1% proparacaine. Eyes are washed with saline after each measurement. After a baseline IOP measurement, test compound is instilled in one 30 μL aliquot to the right eyes only of nine cynomolgus monkeys. Vehicle is instilled in the right eyes of six additional animals. Subsequent IOP measurements are taken at 1, 3, and 6 hours.
The above method was used to determine the IOP lowering efficacy of 8,9-dichloro-2,3,4,4a-tetrahydro-1H,6H-pyrazino[1,2-a]quinoxalin-5-one when dosed at 300 μg.
The same method was used to evaluate the IOP lowering ability of the R enantiomer of the Compound (substantially free of the S enantiomer), dosed at 300 μg.

5-HT2C receptor = target: T4, 5-HT2C receptor (Homo sapiens, UniProt P28335); conditions: R enantiomer versus S enantiomer; cited from earlier work
T4 sequence (P28335 33-458): T1 sequence (P28335 33-458)

[5] = 1 hr after topical dose of 300 μg (one 30 μL aliquot)
[6] = 3 hrs after topical dose of 300 μg (one 30 μL aliquot)
[7] = 6 hrs after topical dose of 300 μg (one 30 μL aliquot)

T2 sequence (P28223 whole entry): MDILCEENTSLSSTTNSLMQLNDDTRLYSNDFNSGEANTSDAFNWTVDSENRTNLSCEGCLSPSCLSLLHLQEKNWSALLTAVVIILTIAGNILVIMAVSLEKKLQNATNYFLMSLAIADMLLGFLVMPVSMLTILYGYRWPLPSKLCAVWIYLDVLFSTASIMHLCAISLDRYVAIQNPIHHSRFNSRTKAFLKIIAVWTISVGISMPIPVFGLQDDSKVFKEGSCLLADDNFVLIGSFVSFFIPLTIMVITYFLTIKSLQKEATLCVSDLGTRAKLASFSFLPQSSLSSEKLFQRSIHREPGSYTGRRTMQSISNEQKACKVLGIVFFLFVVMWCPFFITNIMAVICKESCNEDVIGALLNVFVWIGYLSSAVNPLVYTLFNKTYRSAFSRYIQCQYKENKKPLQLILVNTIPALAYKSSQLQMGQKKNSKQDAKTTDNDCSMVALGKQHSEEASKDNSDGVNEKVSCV
T3 sequence (P41595 whole entry): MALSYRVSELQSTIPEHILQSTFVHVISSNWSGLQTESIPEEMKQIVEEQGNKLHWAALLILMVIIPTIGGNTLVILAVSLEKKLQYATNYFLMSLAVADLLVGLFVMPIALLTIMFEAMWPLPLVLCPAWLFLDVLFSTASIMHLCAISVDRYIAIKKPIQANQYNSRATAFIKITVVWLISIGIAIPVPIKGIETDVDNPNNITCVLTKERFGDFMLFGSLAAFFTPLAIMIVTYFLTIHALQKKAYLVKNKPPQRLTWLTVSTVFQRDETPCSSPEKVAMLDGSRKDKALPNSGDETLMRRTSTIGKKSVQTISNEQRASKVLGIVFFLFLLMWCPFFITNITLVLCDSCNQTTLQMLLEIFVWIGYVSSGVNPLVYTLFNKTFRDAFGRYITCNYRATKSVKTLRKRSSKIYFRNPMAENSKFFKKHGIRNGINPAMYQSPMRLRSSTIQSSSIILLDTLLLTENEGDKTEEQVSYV

| SMILES | Emax [1] [%] | EC50 [1] [nM] | Emax [2] [%] | EC50 [2] [nM] | Emax [3] [%] | EC50 [3] [nM] | IOP % change [4, 5] [%] | IOP Change mmHg [4, 5] [mmHg] | IOP % change [4, 6] [%] | IOP Change mmHg [4, 6] [mmHg] | IOP % change [4, 7] [%] | IOP Change mmHg [4, 7] [mmHg] | IOP lowering efficacy (in words) [4] | potency relative to the S enantiomer at the 5-HT2C receptor (5-HT2C receptor) |
| --- | --- | --- | --- | --- | --- | --- | --- | --- | --- | --- | --- | --- | --- | --- |
| O=C1Nc2cc(Cl)c(Cl)cc2N2CCNC[C@@H]12 [S enantiomer] | 105 | 614 | 96 | 2260 | 45 | 2540 | – | – | – | – | – | – | – | – |
| O=C1Nc2cc(Cl)c(Cl)cc2N2CCNC[C@H]12 [R enantiomer, (R)-8,9-dichloro-2,3,4,4a-tetrahydro-1H,6H-pyrazino[1,2-a]quinoxalin-5-one] | 108 | 2.6 | 108 | 20.5 | 99 | 31.6 | −12.9 | −5.8 | −26.3 | −11.7 | −34.7 | −15.0 | significant decrease in IOP | approximately 40 fold |
| O=C1Nc2cc(Cl)c(Cl)cc2N2CCNCC12 (racemic) [Racemic, 8,9-dichloro-2,3,4,4a-tetrahydro-1H,6H-pyrazino[1,2-a]quinoxalin-5-one] | 105 | 4.2 | 112 | 37.5 | 98 | 76.8 | −5.7 | −2.8 | −21.9 | −9.6 | −29.3 | −12.8 | significant decrease in IOP | – |
